Data published in publication PMC6332596 (Journal of Hematology & Oncology, 2019).
“Also recorded” adds a separate entry of the source. Like-named read-outs stand apart in the source and are kept apart here.

How the values were obtained:
[1] = system: advanced solid tumor and lymphoma; assay: Tumor response by RECIST 1.1 in patients; type: in vivo, human
Procedure: Tumor response was evaluated by the Response Evaluation Criteria in Solid Tumors (RECIST) version 1.1. Tumor response was assessed by computed tomography (CT) and/or magnetic resonance imaging (MRI) scans at screening and every 8 weeks (2 cycles) during the first 12 cycles.

[2] = system: VEGFR2; design: method as in PMID 28004478; conditions: cited from earlier work
[3] = system: human tumor xenograft models inoculated with human cancer cell lines derived from colon, lung, liver, or stomach cancers; design: method as in PMID 28004478; conditions: cited from earlier work
[4] = Pharmacokinetics of plasma chiauranib after single and multiple oral doses in patients (LC-MS/MS); type: in vivo, human
Procedure: Three milliliters of venous blood samples was drawn into heparinized tubes before drug administration as well as at 1, 2, 4, 6, 8, 12, 24, 48, 72, 96, 120, and 144 h post-dose. […] Three milliliters of venous blood samples was drawn into heparinized tubes before administration as well as at 1, 2, 4, 8, 12, and 24 h post the oral dose on day 28. […] Samples were centrifuged immediately at 3600×g for 10 min at 4 °C, and the plasma fractions were separated and stored at − 20 °C until analysis.
The intra- and inter-day precisions and accuracies (relative standard deviation, %RSD) were in the range of 1.75–6.33%, and − 7.88–9.00%, respectively. The extraction recovery (relative standard deviation, %RSD) was 1.32–5.16%.
Descriptive statistics were used for baseline characteristics, safety assessments, pharmacokinetic variables (including Cmax, Tmax, AUC, and t1/2) and exploratory efficacy assessments, including tumor response and time to progression. Continuous variables were summarized with means, standard deviations (SD), medians, minimums, and maximums. Categorical variables were summarized by counts and by percentage of patients in corresponding categories. P values < 0.05 were considered statistically significant. Statistical analyses were performed using SAS® v9.4 (Cary, NC).

[5] = system: VEGFR1; design: method as in PMID 28004478; conditions: cited from earlier work
[6] = system: Aurora B; design: method as in PMID 28004478; conditions: cited from earlier work
[7] = Day28, multiple dose 10 mg once daily (n = 2)
[8] = Day28, multiple dose 20 mg once daily (n = 6)
[9] = Day28, multiple dose 35 mg once daily (n = 3)
[10] = Day28, multiple dose 50 mg once daily (n = 3)
[11] = Day28, multiple dose 65 mg once daily (n = 4)
[12] = human, plasma, oral, 10 mg, Day1, single dose 10 mg (n = 2)
[13] = human, plasma, oral, 10 mg, Day28, multiple dose 10 mg once daily (n = 2)
[14] = human, plasma, oral, 20 mg, Day1, single dose 20 mg (n = 6)
[15] = human, plasma, oral, 20 mg, Day28, multiple dose 20 mg once daily (n = 6)
[16] = human, plasma, oral, 35 mg, Day1, single dose 35 mg (n = 3)
[17] = human, plasma, oral, 35 mg, Day28, multiple dose 35 mg once daily (n = 3)
[18] = human, plasma, oral, 50 mg, Day1, single dose 50 mg (n = 3)
[19] = human, plasma, oral, 50 mg, Day28, multiple dose 50 mg once daily (n = 3)
[20] = human, plasma, oral, 65 mg, Day1, single dose 65 mg (n = 4)
[21] = human, plasma, oral, 65 mg, Day28, multiple dose 65 mg once daily (n = 4)

SMILES: COc1ccc2c(Oc3ccc4c(C(=O)Nc5ccccc5N)cccc4c3)ccnc2c1 [chiauranib]
- patients achieving SD among six with prior anti-angiogenic agents ([1]; 6/18 patients pretreated with anti-angiogenic agents): five
- stable disease (SD) as best response ([1]; 12 of 18 patients, investigator's assessment): 66.7%
- complete or partial response ([1]; 18 patients): No complete or partial responses were observed; also recorded: No partial or complete response was observed
- duration of confirmed SD ([1]; one patient with DLBCL, 10 mg cohort): 596 days
- change in the sum of the longest diameters of target lesions at best response ([1]; one patient with ovarian cancer (65 mg cohort)): 22.2%
- IC50 [2]: single-digit nanomolar range
- activity against human tumor xenograft models [3]: broad activity
- dose dependence of plasma exposure ([4]; 10 to 65 mg, single and multiple dose): dose proportional and good linear pharmacokinetic profile
- Cav [4, 7]: 174 (9) ng/mL
- Ctrough [4, 7]: 122 (21) ng/mL
- DF [4, 7]: 1.1 (0.4)
- Cav [4, 8]: 257 (64) ng/mL
- Ctrough [4, 8]: 191 (89) ng/mL
- DF [4, 8]: 1.3 (0.6)
- Cav [4, 9]: 490 (336) ng/mL
- Ctrough [4, 9]: 330 (208) ng/mL
- DF [4, 9]: 0.8 (0.4)
- Cav [4, 10]: 604 (235) ng/mL
- Ctrough [4, 10]: 467 (166) ng/mL
- DF [4, 10]: 1.1 (0.3)
- Cav [4, 11]: 1010 (492) ng/mL
- Ctrough [4, 11]: 890 (662) ng/mL
- DF [4, 11]: 1.5 (0.8)
- median peak time ([4]; after first dose in run-in period, 10-65 mg, range from 1 to 4 h): 2 h
- increase of trough plasma concentration versus after first administration ([4]; continuous once daily dosing): twofold
- Cmax [4, 12]: 201 ng/mL
- Tmax [4, 12]: 2 h
- AUC(0-t) ([4]; human, plasma, oral, 10 mg, Day1, single dose 10 mg (n = 2), read-out: AUC0–24 h): 2000 ng·h/mL
- AUC(0-t) ([4]; human, plasma, oral, 10 mg, Day1, single dose 10 mg (n = 2), read-out: AUC0–144 h): 3580 ng·h/mL
- Cmax [4, 13]: 312 ng/mL
- Tmax [4, 13]: 2 h
- AUC(0-t) ([4]; human, plasma, oral, 10 mg, Day28, multiple dose 10 mg once daily (n = 2), read-out: AUC0–24 h): 4180 ng·h/mL
- Cmax [4, 14]: 354 ng/mL
- Tmax [4, 14]: 2 h
- AUC(0-t) ([4]; human, plasma, oral, 20 mg, Day1, single dose 20 mg (n = 6), read-out: AUC0–24 h): 3450 ng·h/mL
- AUC(0-t) ([4]; human, plasma, oral, 20 mg, Day1, single dose 20 mg (n = 6), read-out: AUC0–144 h): 6820 ng·h/mL
- Cmax [4, 15]: 517 ng/mL
- Tmax [4, 15]: 2 h
- AUC(0-t) ([4]; human, plasma, oral, 20 mg, Day28, multiple dose 20 mg once daily (n = 6), read-out: AUC0–24 h): 6180 ng·h/mL
- Cmax [4, 16]: 608 ng/mL
- Tmax [4, 16]: 1 h
- AUC(0-t) ([4]; human, plasma, oral, 35 mg, Day1, single dose 35 mg (n = 3), read-out: AUC0–24 h): 5760 ng·h/mL
- AUC(0-t) ([4]; human, plasma, oral, 35 mg, Day1, single dose 35 mg (n = 3), read-out: AUC0–144 h): 11900 ng·h/mL
- Cmax [4, 17]: 773 ng/mL
- Tmax [4, 17]: 4 h
- AUC(0-t) ([4]; human, plasma, oral, 35 mg, Day28, multiple dose 35 mg once daily (n = 3), read-out: AUC0–24 h): 11800 ng·h/mL
- Cmax [4, 18]: 756 ng/mL
- Tmax [4, 18]: 1 h
- AUC(0-t) ([4]; human, plasma, oral, 50 mg, Day1, single dose 50 mg (n = 3), read-out: AUC0–24 h): 7420 ng·h/mL
- AUC(0-t) ([4]; human, plasma, oral, 50 mg, Day1, single dose 50 mg (n = 3), read-out: AUC0–144 h): 16400 ng·h/mL
- Cmax [4, 19]: 1120 ng/mL
- Tmax [4, 19]: 2 h
- AUC(0-t) ([4]; human, plasma, oral, 50 mg, Day28, multiple dose 50 mg once daily (n = 3), read-out: AUC0–24 h): 14500 ng·h/mL
- Cmax [4, 20]: 1280 ng/mL
- Tmax [4, 20]: 1.5 h
- AUC(0-t) ([4]; human, plasma, oral, 65 mg, Day1, single dose 65 mg (n = 4), read-out: AUC0–24 h): 11000 ng·h/mL
- AUC(0-t) ([4]; human, plasma, oral, 65 mg, Day1, single dose 65 mg (n = 4), read-out: AUC0–144 h): 24800 ng·h/mL
- Cmax [4, 21]: 2240 ng/mL
- Tmax [4, 21]: 2 h
- AUC(0-t) ([4]; human, plasma, oral, 65 mg, Day28, multiple dose 65 mg once daily (n = 4), read-out: AUC0–24 h): 24200 ng·h/mL
- half-life ([4]; human, plasma, oral, after first dose in run-in period, 10-65 mg, read-out: terminal half-life (t1/2) (converted)): 25.6 ± 6.73 h
- IC50 [5]: single-digit nanomolar range
- IC50 [6]: single-digit nanomolar range
